Tests used:
HT1080 cells = experiment: R3616 viral yield in HT1080 cells with MEK inhibitor PD98059 or DMSO; assay type: cell-based, human; settings: R3616 1 PFU/cell
Experimental: (§1) Inhibitor studies—For experiments employing the known MEK inhibitor, PD98059, HT1080 cells were starved over night in serum-free medium and then exposed to 40 μM of PD98059 (EMD Biosciences, San Diego, Calif.), or DMSO (1:1000 dilution) 6 hours prior to, and during, infection. At 12 hours post-infection, whole cell lysates were created as described above for immunoblotting.
Finally, to determine if MEK inhibition affects viral replication, DMSO or PD98059 (40 μM) was added to replicate cultures of HT1080 cells 6 hours prior to, and during, infection with R3616 (1 PFU/cell). The cells were harvested at 36 hours post-infection and viral yields were measured by plaque assays on Vero cell monolayers.

[1] = system: HT1080 cells infected with R3616; experiment: Immunoblot of viral proteins and phosphorylated PKR in R3616-infected HT1080 cells treated with PD98059; assay type: cell-based, human
Experimental: Immunoblotting—Experiments to analyze the accumulation of viral proteins and phosphorylation of ERK, PKR and eIF-2α were performed on whole-cell lysates harvested on ice at either 12 or 14 hours post-infection with lysis buffer, sonicated for 10 seconds, and clarified by centrifugation. Total protein from the supernatant was quantified by the Bradford method and 20 μg of equilibrated protein was subjected to electrophoresis in 12% or 7.5% (vol/vol) denaturing polyacrylamide gels, transferred to PVDF membranes (Millipore Corporation), blocked, and reacted with primary antibody followed by appropriate secondary antibody.
as §1
To determine if MEK mediates the observed mutant Ras-dependent suppression of PKR activation and resultant accumulation of viral proteins in HT1080 cells infected with mutant virus R3616, the relative expressions of representative α (ICP27), β (UL42) and γ2(glycoprotein C) viral proteins in cells treated with a specific chemical inhibitor of MEK-1 (PD98059) were compared. Replicate cultures of HT1080 cells were serum-starved overnight prior to exposure to equal volumes of DMSO or PD98059 (40 μM) for 6 hours prior to infection with R3616 mutant virus (10 PFU/cell). DMSO or drug treatment was then continued until the cells were harvested at 12 hours post-infection. The cells were then lysed and the lysates were subjected to electrophoresis in denaturing polyacrylamide gels, followed by transferring to PVDF membranes and reacting with antibody to ICP27, UL42, or gC. […] To test whether the decrease in the accumulation of gC correlated with activation of PKR, the electrophoretically separated lysates were also probed with antibody to the auto-phosphorylated form of PKR (P-Thr446).

[2] = PD98059 40 μM, R3616 10 PFU/cell, 12 hours post-infection

Question: Which “yield of R3616 mutant virus in the presence of PD98059” value (HT1080 cells; PD98059 40 μM 6 hours prior to and during infection, 36 hours post-infection) does the source give for `COc1cccc(-c2cc(=O)c3ccccc3o2)c1N` [PD98059] here?
Answer: 1.67×10^5 PFU/ml

Question: And the “fold lower yield of R3616 with PD98059 than with DMSO” value (HT1080 cells; PD98059 40 μM, 36 hours)?
Answer: approximately 15 fold

Question: And the “amount of activated PKR (P-Thr446)” value ([1]; PD98059 40 μM prior to and during infection with R3616)?
Answer: increased the amount of activated PKR

Question: And the “accumulation of ICP27 and UL42 proteins” value [1, 2]?
Answer: slight effect

Question: And the “amounts of gC that accumulated” value [1, 2]?
Answer: very dramatic decrease

Source: US20110274661A1, “Attentuated Herpesvirus Encoding a Mek Pathway Polypeptide” (The University of Chicago, priority 2008, published 2011)
